The results in this text go back to the supplement of paper PMC12613149.

Series [1] is described as follows: collision cross section (TIMS, N2 drift gas) of the primary ion; higher = larger gas-phase ion size.
Series [2] in a line: reversed-phase LC retention time (C18, 15 min MeOH gradient); higher = more hydrophobic / later elution.
Where [3] appears, read: ionization mode: ESI+, ion species: [M+H]+.
The mark [4] stands for this setting: ionization mode: ESI-, ion species: [M-H]-.
Where [5] appears, read: ionization mode: ESI+, ion species: [M]+.

Counter-ions that a name gives are not always drawn.

`CCCCCCCCCCCOC(=O)c1ccccc1C(=O)OCCCCCCCCCCC` [Diundecylphthalate]: the collision cross section in series [1] (setting [3]) amounted to 241.8 Å². Moreover, the “reversed-phase LC retention time” value in series [2] (setting [3]) worked out at 20.8 min.

With `O=C1CCCCCCCCCCCN1` [Dodecane-12-lactam], in series [1] (setting [3]), the collision cross section is reported as 148.39 Å². In addition, the “reversed-phase LC retention time” value in series [2] (setting [3]) came to 13.9 min.

For the compound `O=C(O)CCCCCCCCCCC(=O)O` [Dodecanedioic acid], the collision cross section in series [1] (setting [3]) is reported as 156.8 Å²; in series [1] (setting [4]) it was 153.38 Å². Besides, the results for the “reversed-phase LC retention time” value in series [2] (setting [3]) and in series [2] (setting [4]) were 14.7 min and 8.22 min, respectively.

Regarding `CCCCCCCCCCCCOS(=O)(=O)O` [Dodecyl sulfate], in series [1] (setting [4]), the collision cross section came to 166.94 Å². Also, the “reversed-phase LC retention time” value in series [2] (setting [4]) was 16.3 min.

In the case of `CCCCCCCCCCCCc1ccccc1S(=O)(=O)O` [Dodecylbenzenesulfonic acid], the collision cross section in series [1] (setting [4]) was determined as 185.13 Å². Further, in series [2] (setting [4]), the “reversed-phase LC retention time” value was 17.3 min.

`CCCCCCCCCCCC[N+](C)(C)C` [Dodecyltrimethylammonium] came in with a collision cross section in series [1] (setting [5]) of 176.31 Å². Further, the “reversed-phase LC retention time” value in series [2] (setting [5]) came to 15.2 min.

For `CC1CN(C2CCCCCCCCCCC2)CC(C)O1` (centres undefined) [Dodemorph], the collision cross section in series [1] (setting [3]) came to 175.75 Å². In addition, the “reversed-phase LC retention time” value in series [2] (setting [3]) was found to be 13.3 min.

As for `C[C@H]1c2cccc(O)c2C(=O)C2=C(O)[C@]3(O)C(=O)C(C(N)=O)=C(O)[C@@H](N(C)C)[C@@H]3[C@@H](O)[C@@H]21` [Doxycycline], in series [1] (setting [4]), the collision cross section is 197.93 Å². For the same compound, in series [2] (setting [4]), the “reversed-phase LC retention time” value was found to be 10.2 min.

For the compound `Cc1ccc(O)c(-n2nc3ccccc3n2)c1` [Drometrizole], the collision cross section in series [1] (setting [3]) came out at 148.63 Å²; in series [1] (setting [4]) it was 154.28 Å². The “reversed-phase LC retention time” value in series [2] (setting [3]) was 16.7 min; in series [2] (setting [4]), 17.1 min.

`CNCCC(Oc1cccc2ccccc12)c1cccs1` (centres undefined) [Duloxetine] showed a collision cross section in series [1] (setting [3]) of 171.35 Å². The “reversed-phase LC retention time” value in series [2] (setting [3]) amounted to 13 min.

`CC(=O)[C@H]1CC[C@H]2[C@@H]3C=CC4=CC(=O)CC[C@@]4(C)[C@@H]3CC[C@]12C` [Dydrogesterone] returned a collision cross section in series [1] (setting [3]) of 177.44 Å². Also, in series [2] (setting [3]), the “reversed-phase LC retention time” value is 15.1 min.

In series [1] (setting [3]), `C/C=C1\N(C)C(C)CC1(c1ccccc1)c1ccccc1` (centres undefined) [EDDP] registered a collision cross section of 166.21 Å². Also, the “reversed-phase LC retention time” value in series [2] (setting [3]) was 11.5 min.

On to `O=C1Nc2ccc(Cl)cc2C(C#CC2CC2)(C(F)(F)F)O1` (centres undefined) [Efavirenz], for which the figures for the collision cross section in series [1] (setting [3]) and in series [1] (setting [4]) were 168.93 Å² and 167.59 Å², respectively. Also, the results for the “reversed-phase LC retention time” value in series [2] (setting [3]) and in series [2] (setting [4]) were 15.4 min and 15.8 min, respectively.

Turning to `CC[C@H](C)[C@H]1O[C@]2(C=C[C@@H]1C)C[C@@H]1C[C@@H](C/C=C(\C)[C@@H](O[C@H]3C[C@H](OC)[C@@H](O[C@H]4C[C@H](OC)[C@@H](NC)[C@H](C)O4)[C@H](C)O3)[C@@H](C)/C=C/C=C3\CO[C@@H]4[C@H](O)C(C)=C[C@@H](C(=O)O1)[C@]34O)O2` [Emamectin B1a], the collision cross section is recorded as 283.49 Å² in series [1] (setting [3]) and 296.31 Å² in series [1] (setting [4]). For the same compound, the “reversed-phase LC retention time” value in series [2] (setting [3]) is 17 min; in series [2] (setting [4]), 18.9 min.

For the compound `Nc1nc(=O)n([C@@H]2CS[C@H](CO)O2)cc1F` [Emtricitabine], in series [1] (setting [3]), the collision cross section is on record as 146.78 Å². The “reversed-phase LC retention time” value in series [2] (setting [3]) turned out to be 5.75 min.

`CCOC(=O)[C@H](CCc1ccccc1)N[C@@H](C)C(=O)N1CCC[C@H]1C(=O)O` [Enalapril]: the collision cross section came to 187.31 Å² in series [1] (setting [3]) and 193.85 Å² in series [1] (setting [4]). Also, the “reversed-phase LC retention time” value in series [2] (setting [3]) turned out to be 11.6 min; in series [2] (setting [4]) it was 12.2 min.

As for `CC1(C)[C@@H](O)CC[C@]2(C)[C@H]3C(=O)C=C4[C@@H]5C[C@@](C)(C(=O)O)CC[C@]5(C)CC[C@@]4(C)[C@]3(C)CC[C@@H]12` [Enoxolone], the collision cross section is 216.71 Å² in series [1] (setting [3]) and 224.72 Å² in series [1] (setting [4]). In addition, the results for the “reversed-phase LC retention time” value in series [2] (setting [3]) and in series [2] (setting [4]) were 17.5 min and 16.6 min, respectively.

As to `CCN1CCN(c2cc3c(cc2F)c(=O)c(C(=O)O)cn3C2CC2)CC1` [Enrofloxacin], in series [1] (setting [3]), the collision cross section is listed as 186.48 Å². The “reversed-phase LC retention time” value in series [2] (setting [3]) came out at 8.4 min.

Take `Fc1ccc(C2(Cn3cncn3)OC2c2ccccc2Cl)cc1` (centres undefined) [Epoxiconazole]: the collision cross section in series [1] (setting [3]) is listed as 176.09 Å². In series [2] (setting [3]), the “reversed-phase LC retention time” value is 14.9 min.

`CCCCc1ncc(C(=O)O)n1Cc1ccc(C(=O)O)cc1` [Eprosartan acid] gave a collision cross section in series [1] (setting [4]) of 178.16 Å². Besides, in series [2] (setting [4]), the “reversed-phase LC retention time” value is 7.27 min.

With `CCCCc1ncc(/C=C(\Cc2cccs2)C(=O)O)n1Cc1ccc(C(=O)O)cc1` [Eprosartan], the collision cross section in series [1] (setting [3]) is listed as 206.28 Å²; in series [1] (setting [4]), 198.36 Å². The “reversed-phase LC retention time” value stood at 11.2 min in series [2] (setting [3]) and 10 min in series [2] (setting [4]).

`CCCCCCCC/C=C\CCCCCCCCCCCC(N)=O` [Erucamide] registered a collision cross section in series [1] (setting [3]) of 200.01 Å². The “reversed-phase LC retention time” value in series [2] (setting [3]) was determined as 19.6 min.

In turn, `CC[C@H]1OC(=O)[C@H](C)[C@@H](O[C@H]2C[C@@](C)(OC)[C@@H](O)[C@H](C)O2)[C@H](C)[C@@H](O[C@@H]2O[C@H](C)C[C@H](N(C)C)[C@H]2O)[C@](C)(O)C[C@@H](C)C(=O)[C@H](C)[C@@H](O)[C@]1(C)O` [Erythromycin] gave a collision cross section in series [1] (setting [3]) of 259.69 Å². Besides, in series [2] (setting [3]), the “reversed-phase LC retention time” value was determined as 13 min.

With `C[C@]12CC[C@@H]3c4ccc(O)cc4CC[C@H]3[C@@H]1C[C@@H](O)[C@@H]2O` [Estriol], the collision cross section in series [1] (setting [4]) amounted to 176.65 Å². For the same compound, the “reversed-phase LC retention time” value in series [2] (setting [4]) was found to be 11.4 min.

Turning to `CCOP(=S)(OCC)SCSP(=S)(OCC)OCC` [Ethion], the collision cross section in series [1] (setting [3]) was 176.99 Å². Besides, in series [2] (setting [3]), the “reversed-phase LC retention time” value stood at 16.9 min.
